Results published in article PMC9785606, “Design and Synthesis of Novel Phenylahistin Derivatives Based on Co-Crystal Structures as Potent Microtubule Inhibitors for Anti-Cancer Therapy” (Marine Drugs, 2022).
Marks after values point to notes of the source that are not given here.

Columns and labels:
[1] = test system: H22 hepatoma carcinoma cells transplanted tumor; test: H22 subcutaneous transplanted tumor model, intravenous administration; conditions: for Tumor Volume (D15): 14 consecutive days; for Tumor Volume (D1): D1 (baseline), mean ± SD; for Tumor Weight: excised at end of administration; for IR (tumor weight inhibition rate): IR = (1 − TWt/TWc) × 100%
Experimental: The anticancer effect of the compound 15p was further evaluated against H22 tumor-bearing mice models by intravenous injection at doses of 2 mg/kg, or 4 mg/kg, two or three times a week, and for 14 consecutive days. Docetaxel (10 mg/kg), plinabulin (4 mg/kg), and cyclophosphamide (20 mg/kg) were used as the positive controls.
Balb/c mice (4–6 weeks old, 16–18 g) were purchased from Shanghai Sippr-BK laboratory animal Co. Ltd. The animal study protocol was approved by Institutional Review Board of Science and Technology Division of Linyi University (review opinion on behalf of the Ethics Committee) (The protocol code is LYU20220107, provided on 10 March 2022). H22 cells were grown in RPMI-1640 midium supplemented with 10% fetal bovine serum, and maintained at 37 °C in humidified 5% CO2. Cells were passaged when they reached 70–80% confluence. Viable H22 cells (1 × 10^7 cells/0.2 ml 0.9% sodium chloride) were injected into the peritoneal cavity of BALB/C mice to trigger ascitic cell growth. Later, cells were harvested and suspended. H22 cancer cells (2 × 10^7 cells/0.1 ml 0.9% sodium chloride cells) were subcutaneously injected into the right flank of each mouse. After implantation, the tumor size was measured with an electronic caliper twice a week, and the tumor volume was calculated according to the following formula: tumor volume (mm^3) = 0.5 × length × width^2. When the tumor volume reached about 130 mm^3, the xenograft tumor-bearing BALB/C mice were randomly placed into six groups at 10 mice per group: vehicle, plinabulin (4 mg/kg), 15p ([…]), 15p ([…]), cyclophosphamide (20 mg/kg) and docetaxel (10 mg/kg) groups. Docetaxel, plinabulin, and cyclophosphamide were chosen as positive control drug. The reference compound docetaxel and cyclophosphamide were completely dissolved in isotonic saline. […] The solution of compound 15p was diluted with the concentrated solution and in isotonic saline at a calculated ratio. The solutions of plinabulin were made up according to similar methods. The mice received intravenous administration (iv) every two or three days for consecutive 14 days. The tumor volumes and the body weights were recorded every two or three days after treatment. At the end of the administration period, the animals were euthanized by dislocation, and the tumor bulks were peeled off conforming to the Guide for the Animal use and Management of Shanghai Medicilon Biological Medicine Co. Ltd. The tumor volume was calculated according to the Principles of Non-clinical Research Techniques for Anti-tumor Drugs of Cytotoxic Drugs by China Food and Drug Administration.

[2] = test system: pancreatic cancer BxPC-3 cell line; test: MTT cytotoxicity assay, pancreatic cancer BxPC-3 cell line; assay type: cell-based; conditions: Homo sapiens, 72 h, mean ± SD
Experimental: Human cancer cell lines (lung cancer NCI-H460 cell line, pancreatic cancer BxPC-3 cell line, colon cancer HT-29 cell line) were purchased from American Type Cell Culture Collection (ATCC, Manassas, VA, USA). Cells were maintained in RPMI-1640 medium supplemented with 10% (v/v) heat-inactivated fetal bovine serum, penicillin-streptomycin (100 U/mL-100 […]) at 37 °C in a humidified atmosphere (5% CO2–95% air). All tested derivatives were dissolved in 100% cell culture grade DMSO. Cells (3 × 10^3 per well) were seeded in 96-well plates for 24 h. Then, cells were treated with the tested compounds in six concentrations for 72 h. Cell viability was assessed by MTT assay. The absorbance at 490 nm was measured with a Microplate Reader (Molecular Devices, Silicon Valley, CA, USA). The data were analyzed by Origin 8.5 (OriginLab, Northampton, MA, USA).

[3] = 2 mg/kg iv, listed as Compound 15p
[4] = 4 mg/kg iv, listed as Compound 15p

In the case of `C=CCn1cnc(/C=c2\[nH]c(=O)/c(=C/c3cccc(C(=O)c4ccc(F)cc4)c3)[nH]c2=O)c1C(C)C` [15p], the “Tumor Volume (D15)” value ([1]; 2 mg/kg iv) is reported as 1453.6 mm^3, the “Tumor Volume (D15)” value [1, 3] is reported as 1453.6 ± 909.5 mm^3 and the “Tumor Volume (D1)” value ([1]; 2 mg/kg iv) is reported as 103.7 ± 29.99 mm^3. For the same molecule, the “Tumor Weight” value ([1]; 2 mg/kg iv) was 0.82 g, the “Tumor Weight” value [1, 3] was 0.82 ± 0.47 g and the “IR (tumor weight inhibition rate)” value ([1]; 2 mg/kg iv) was 27.6%. For the same molecule, the “Tumor Volume (D15)” value ([1]; 4 mg/kg iv) was 674.5 mm^3, the “Tumor Volume (D15)” value [1, 4] was 674.5 ± 274.0* mm^3 and the “Tumor Volume (D1)” value ([1]; 4 mg/kg iv) was 102.2 ± 28.62 mm^3. For the same molecule, the “Tumor Weight” value ([1]; 4 mg/kg iv) was 0.39 g, the “Tumor Weight” value [1, 4] was 0.39 ± 0.22 g and the “IR (tumor weight inhibition rate)” value ([1]; 4 mg/kg iv) was 65%. For the same molecule, the “IR (tumor weight inhibition rate)” value [1, 4] was 65.2% and the IC50 [2] was 0.81 ± 0.02 nM.
